# Earlier results, collected in patent US20030175329A1, “Semisolid topical hormonal compositions and methods for treatment” (Cellegy Pharmaceuticals, Inc., priority 2001, published 2003).
# Assays:
# healthy males = conditions: 200 mg IM weekly
# [1] = 6 months
# hypogonadal males = conditions: oral doses for at least 60 days; 23 hypogonadal males
compound,measurement,setting,value
CCCCCCC(=O)O[C@H]1CC[C@H]2[C@@H]3CCC4=CC(=O)CC[C@]4(C)[C@H]3CC[C@]12C [testosterone enanthate],decrease of high-density lipoprotein cholesterol,healthy males,14-18%
same,serum BT levels maintained within the normal range throughout the dosing interval,[1],39%
same,serum DHT levels maintained within the normal range throughout the dosing interval,[1],70%
same,serum E2 levels maintained within the normal range throughout the dosing interval,[1],35%
same,serum T levels maintained within the normal range throughout the dosing interval,[1],72%
CCCCCCCCCCC(=O)O[C@H]1CC[C@H]2[C@@H]3CCC4=CC(=O)CC[C@]4(C)[C@H]3CC[C@]12C [testosterone undecanoate],men with measurable improvement in sexual attitudes and performance,hypogonadal males,61%
"C[C@]12CC[C@H]3[C@@H](CCC4=CC(=O)CC[C@@]43C)[C@@H]1CC[C@@H]2O [Testosterone, testosterone]",dose excreted in urine as glucuronide and sulfate conjugates of testosterone and its metabolites,following IM injection,about 90%
same,excreted mostly unconjugated in the feces,in vivo,About 6%
